Measurements reported in US9486427B2, “Administration of aerosolised iloprost” (VECTURA GMBH, priority 2012, dated 2016).
Like-named read-outs stand apart in the source and are kept apart here.

Legend:
[1] = test system: patients suffering from pulmonary hypertension (PH); assay: Iloprost inhalation in six further patients (Example 4); format: in vivo, human; conditions: rapid inhalation as in Example 3
Procedure: Six further patients suffering from pulmonary hypertension (PH) were treated with iloprost inhalation as in Example 3.

[2] = test system: patients with pulmonary arterial hypertension; assay: Clinical pilot study of safety and tolerability of rapidly inhaled nebulised iloprost (Example 3); format: in vivo, human
Procedure: A clinical pilot study to evaluate the safety and tolerability of nebulised iloprost administered by inhalation according to the invention was conducted with 4 patients. Eligible were male and female patients with pulmonary arterial hypertension in the age from 18 to 70 years having a mean pulmonary arterial blood pressure (PAP) higher than 25 mm Hg, a pulmonary vascular resistance (PVR) higher than 240 dyn*s*cm^−5, a central venous pressure (CVP) higher than 3 mm Hg, and a pulmonary capillary wedge pressure (PCWP) lower than 12 mm Hg. Excluded were patients with a contraindication for cardiac catheterisation (such as coagulopathy, bleeding disorder, acute infection, severe cardiac dysrhythmia), pregnancy, systemic systolic blood pressure below 110 mm Hg, highly impaired ventricular function with cardiac index below 1.8 L/min*m^2, and known lack of pulmonary vascular reactivity. Patients were monitored by ECG, pulse oxymetry, and non-invasive blood pressure measurement. An intracardiac catheter was introduced into the distal pulmonary artery to measure PAP, CVP, PCWP, and cardiac output. Also measured were the heart rate, systemic arterial pressure (SAP), systemic vascular resistance (SVR), central arterial and venous blood gases. After the initial determination of all parameters the reactivity of the pulmonary vasculature to oxygen (2 to 4 L/min) and nitric oxide (20 ppm) was tested. Subsequently, patients inhaled a single dose of 2.5 μg of nebulised iloprost in two consecutive breaths, using the same inhalation system and iloprost composition as described in Example 1. Haemodynamics parameters and clinical condition of the patients were assessed before and up to 30 minutes after inhalation. In the absence of adverse effects, a second inhalation maneuver with 4 consecutive breaths corresponding to a dose 5 μg iloprost was performed, again followed by an observation period of at least 30 minutes.

[3] = cited from earlier work
[4] = 2.8 μg in 2 minutes, ultrasonic nebuliser; cited from earlier work
[5] = 2.5 μg and 5 μg rapid inhalation

CC#CCC(C)[C@H](O)/C=C/[C@@H]1[C@H]2C/C(=C/CCCC(=O)O)C[C@H]2C[C@H]1O (stereo partly drawn) [Iloprost, 5-{(E)-(1S,5S,6R,7R)-7-hydroxy-6[(E)-(3S,4RS)-3-hydroxy-4-methyl-1-octen-6-inyl]-bi-cyclo[3.3.0]octan-3-ylidene}pentanoic acid]
adverse effects [1]: no adverse effects were observed other than the SAP and SVR changes which were mild | pulmonary vascular effects ([1]; PAH, iPAH, portopulmonary, CTEPH): very comparable to those found in Example 3 | systemic side effects (SAP and SVR changes) versus slow inhalation of iloprost [2, 5]: similar | therapeutic pulmonary vascular effects (PAP and PVR changes) versus slow inhalation of iloprost [2, 5]: comparable to those observed after conventional iloprost treatment | tolerability of the treatment ([2]; 2.5 μg in two breaths, then 5 μg in 4 breaths, inhaled, 4 patients): all patients tolerated the treatment well | solubility ([3]; aqueous buffer pH 9): sparingly soluble | aqueous solubility [3]: rather poor | solubility ([3]; distilled water and aqueous buffer at pH 3 and pH 5): very slightly soluble | solubility ([3]; methanol, ethanol, ethyl acetate, acetone and aqueous buffer at pH 7): soluble | systemic effects of rapid inhalation (drop in blood pressure, decrease in systemic vascular resistance, flush, jaw pain) [4]: adverse systemic effects
